In assay [1] the test system is wt and depression-like mouse models. Nature of the assay: Forced Swimming test (FST), acute administration. It is filed as in vivo, mice.
In another assay the test system is Kyn pathway. Briefly: Kynurenine pathway metabolites measurement in plasma. As to conditions: long-term corticosterone-treated mice, chronic AdipoRon treatment. Format: in vivo. The procedure: Data were digitized at 5-10 kHz using a Digidata interface coupled to a microcomputer running pClamp 9 (Axon Instruments, USA). Current-clamp data were digitized at 0.5 kHz using the same interface. Potentials were digitally filtered at 1-3 kHz. Average data were expressed as mean ± SEM, n = number of neurons, N = number of mice. • Western blot analysis - Total proteins were extracted from mouse hypothalamus by homogenization in lysis buffer (50mM Tris-HCl, pH7.5, 150mM NaCl, 5mM EDTA containing 0.5% Triton X-100 and 0.5% sodium deoxycholate with a coktail of protease and phosphatase inhibitors). Equal amounts of total proteins (50µg) determined by the Bradford method (BioRad) were separated onto 12% SDS-PAGE, then transferred on nitrocellulose membrane (Schleicher & Schuell, Dassel, Germany). […] IFNγ, IL1β, IL6, and TNFα, levels were measured using an electro-chemo-luminescence (ECL)-based assay (U-plex, MesoScaleDiscovery) following manufacturer instructions. Results were standardized according to the protein concentration of each sample determined by the Bradford method. • Kynurenine pathway metabolites measurement - Plasma levels of L-kynurenin (L-Kyn), tryptophan (Trp), kynurenin acid (Kyn ac), 5-HT and 5-HIAA were determined as follows: 25µl of plasma was deproteinated with 150µl of cold MeOH. […]

As for `O=C(COc1ccc(C(=O)c2ccccc2)cc1)NC1CCN(Cc2ccccc2)CC1` [AdipoRon, 2-(4-Benzoylphenoxy)-N-[1-(phenylmethyl)-4-piperidinyl]-acetamide], the “immobility time in the FST” value is “remained inefficient” in assay [1] (ApN-/- mice, 0.5mg/kg ip, one-hour post injection); “reduced the immobility time” in assay [1] (ApN-/- mice, 1mg/kg per os (gavage), one-hour before FST); “decreased the immobility time” in assay [1] (ApN-/- mice, 5mg/kg ip, one-hour post injection); “decreased the immobility time” in assay [1] (C57BL/6J wt mice, 1mg/kg ip, 1h post-injection, vs vehicle); “no significant effect” in assay [1] (C57BL/6J wt mice, 1mg/kg ip, 3h post-injection, vs vehicle); “significantly reduced the immobility time” in assay [1] (corticosterone-treated mice, 0.5mg/kg ip, one-hour post injection). The “immobility time in the FST” value was “decreased the immobility time” in assay [1] (corticosterone-treated mice, 5mg/kg ip, one-hour post injection); “significantly reduced the immobility time” in assay [1] (wt mice, 0.5mg/kg ip, one-hour post injection); “reduced the immobility time” in assay [1] (wt mice, 1mg/kg per os (gavage), one-hour before FST); “decreased the immobility time” in assay [1] (wt mice, 5mg/kg ip, one-hour post injection). Also, the “Kyn ac:L-Kyn ratio” value in the assay with Kyn pathway is reported as “restoring the physiological”. Further, the “L-Kyn:Trp ratio” value in the assay on Kyn pathway was “restoring the physiological”.

The values above are taken from patent publication EP3431468B1, “USE OF ADIPONECTIN RECEPTOR AGONISTS IN TREATING DEPRESSION, ANXIETY AND NEUROINFLAMMATION” (CENTRE NATIONAL DE LA RECHERCHE SCIENTIFIQUE, priority 2017, dated 2019).
